For this experiment, the system named is IFN-γ. As to the kind of experiment: Serum IFN-γ levels following tocotrienol supplementation in mouse models. In kind it is in vivo.

tocotrienol: the “serum levels of interferon-gamma (IFN-γ)” value is given as “significantly increased”.

For the origin of these results see patent publication US7776324B2, “Cancer vaccine” (Malaysian Palm Oil Board (MPOB), priority 2006, dated 2010).
